From ChEMBL document CHEMBL3507680, “University of Dundee, Gates Library screen for HepG2 cell viability”

experiment: Human HepG2 cell viability assay in 384 well format; type: toxicity, cell-based; parameters: dose 125 nL, time 70.5 hour; concentration not given beside the values; details: HepG2 cells, read-out: Inhibition

First: CN1CCC2(COCc3cnc(-c4ccccc4)nc32)C1 (configuration not stated)
Second: NC(=O)C1(c2cnccn2)CCCN1Cc1cc2ccccc2o1 (configuration not stated)
The cytotoxicity at 70.5 h of the first is higher: -6.86% for the first, -9.2% for the second.

Going from `CC(C)CN1CCC2(CCCNC2)C1=O` (configuration not stated) to `CC(C)Cn1ncc(C(=O)O)c1C1CC1`, the cytotoxicity at 70.5 h rises from -10.9% to -5.02%.

Compared with `CNS(=O)(=O)Cc1ccc(CNC(=O)c2ccccn2)cc1`, `CCCn1cc(C(=O)NCCS(N)(=O)=O)c2ccccc21` is higher in cytotoxicity at 70.5 h: -9.74% for the first, 15.9% for the second.

Compared with `Cc1nc(C2CCN2c2ncccn2)cc(N(C)C)n1` (configuration not stated), `c1cnc(N2CCC(c3cc4cccnc4[nH]3)CC2)nc1` is higher in cytotoxicity at 70.5 h: -8.86% for the first, -5.37% for the second.

Compared with `Cc1nnc(SCC(=O)Nc2csc3nc(=O)c(C)nn23)s1`, `CCn1cnnc1C1CCN(C(=O)c2cc(C)c(C)s2)CC1` is higher in cytotoxicity at 70.5 h: 7.9% for the first, 15.5% for the second.

First: CCc1cc(N(C)Cc2ccncn2)n2nccc2n1
Second: CCCc1cc(NC2CCc3nc(C)nn3C2)n2ncnc2n1 (configuration not stated)
The cytotoxicity at 70.5 h of the first is higher: 13.1% for the first, -112% for the second.

Going from `Cn1cc(C[C@H]2[C@@H](O)CCN2C(=O)c2ccc[nH]2)cn1` to `Cn1cc(C2CCCN2C(=O)CCCOc2ccc(F)cc2F)cn1` (configuration not stated), the cytotoxicity at 70.5 h falls from -10.8% to -11.3%.

Going from `O=C1Nc2ccccc2C12CCCN(Cc1ccc3c(c1)OCCO3)C2` (configuration not stated) to `OCc1cccc(CNCc2cccc3c2OCCO3)c1`, the cytotoxicity at 70.5 h rises from -11.8% to -1.29%.

Going from `O=S(=O)(NCC1(O)CCOc2ccccc21)c1ccc(Br)s1` (configuration not stated) to `CN(CCc1ccccc1)Cc1cc(C(=O)N2CCCC2(C)C)no1`, the cytotoxicity at 70.5 h rises from 3.29% to 8.4%.

Compared with `O=C(C1=CCCC1)N1CCC[C@]2(C[C@@H](Oc3ncccc3F)CO2)C1`, `O=C(c1ccc2ccc(N3CCN(CC4CC4)CC3)n2c1)N1CCCO1` is higher in cytotoxicity at 70.5 h: -6.43% for the first, -5.05% for the second.

Going from `CCN(C)c1ncnc2c1CCN(C(=O)N(C)C)CC2` to `CC(C)c1ncc(CN2CCCC2c2[nH]ncc2C(=O)N(C)C)cn1` (configuration not stated), the cytotoxicity at 70.5 h falls from 0.982% to -5.06%.

First: CC(O)(CNc1ccc(Cl)c(C#N)n1)c1ccccc1 (configuration not stated)
Second: CC(C)Cn1cc(NC(=O)NCC2CCN(c3ccccc3)C2)cn1 (configuration not stated)
The cytotoxicity at 70.5 h of the first is higher: 13.8% for the first, -0.00229% for the second.

Compared with `c1cnc(NCc2noc3c2CN(C2CCOCC2)CC3)nc1`, `CN(C)c1ncccc1CNc1cc(N2CCCC2CO)ncn1` (configuration not stated) is higher in cytotoxicity at 70.5 h: -10.6% for the first, 10.5% for the second.

First: O=C(C1CCCC1)N1CCCC1c1nnc2n1CCCCC2 (configuration not stated)
Second: CN(Cc1ccc(N(C)C)cc1)C(=O)NCc1nnc2n1CCC2
The cytotoxicity at 70.5 h of the first is higher: 1.94% for the first, -5.5% for the second.

Compared with `O=C(CCc1cccs1)Nc1ccnn1C1CCS(=O)(=O)C1` (configuration not stated), `CC(Cn1cccn1)NC(=O)N1CCCN(Cc2cccs2)CC1` (configuration not stated) is lower in cytotoxicity at 70.5 h: -1.32% for the first, -5.76% for the second.

Going from `Cn1cnc(S(=O)(=O)NCCCN2CCCC2)c1Cl` to `CCc1nnc(CN2CCN(C(=O)c3ccccn3)CC2)o1`, the cytotoxicity at 70.5 h falls from -4.58% to -21.8%.

First: CCCC(=O)N1CCC(c2nn(C)c(=O)n2-c2ccccc2)CC1
Second: COc1ccccc1N1CCN(C(=O)c2ccnc(N(C)C)c2)CC1
The cytotoxicity at 70.5 h of the first is lower: -10.4% for the first, 36.2% for the second.

Compared with `Cc1cc(C)c(Cn2cncn2)cc1CN1CC[C@H]2CC[C@@H](C1)N2`, `Cc1noc(C)c1-c1cccc(CC2CCN(C(=O)CN)C2)n1` (configuration not stated) is lower in cytotoxicity at 70.5 h: 2.8% for the first, -4.83% for the second.

Going from `CCN(CC)CC[C@H]1CN(C(=O)NC2CCCCC2)CC[C@H]1CC(=O)O` to `CCNC(=O)[C@@H]1C[C@H](N)CN1C(=O)C1(c2ccc(OC)cc2)CCCC1`, the cytotoxicity at 70.5 h falls from -1.74% to -10.3%.

First: COCC(=O)N1CCC2(CC1)CCn1c(-c3cccc(OC)c3)cnc12
Second: COc1cccc2c1N(S(=O)(=O)c1cc(C(=O)O)cs1)CCC2
The cytotoxicity at 70.5 h of the first is higher: 36.2% for the first, -6.55% for the second.

Going from `CCOCCOc1ccc(S(=O)(=O)N2CCc3c(nc[nH]c3=O)C2)cc1` to `CCc1ccc(NC(=O)N2C[C@H]3CC[C@@]4(N=C(C)N(C)C4=O)[C@H]3C2)cc1`, the cytotoxicity at 70.5 h rises from 1.59% to 44.3%.

First: CC(C)NC(=O)[C@@H]1CN(Cc2ccc3c(c2)OCO3)C[C@H]2OCC[C@H]21
Second: CC(C)c1ncc2c(n1)CN(Cc1cccc3c1OCCO3)CC2
The cytotoxicity at 70.5 h of the first is lower: -2.81% for the first, 0.0459% for the second.

First: CC(C)c1nccn1CCCNC(=O)c1ccc(N(C)C)nc1
Second: Cc1nc(-c2cccc(C(=O)N(C)CC(C)O)c2)cs1 (configuration not stated)
The cytotoxicity at 70.5 h of the first is lower: -1.73% for the first, 0.422% for the second.

First: Cc1nn(C)cc1-c1ccnc(N2CCN(c3cnccn3)CC2)n1
Second: O=C(NCc1nnc2n1CCC2)c1cn(-c2cccc(Br)c2)nn1
The cytotoxicity at 70.5 h of the first is higher: -0.227% for the first, -6.53% for the second.

First: CCCc1nnc(N2CCC3(CCC(=O)N(C)C3)CC2)o1
Second: CCCc1nn(Cc2ccc(Br)s2)c(=O)o1
The cytotoxicity at 70.5 h of the first is higher: 4.55% for the first, -23.4% for the second.

Going from `O=C(NCCCNC(=O)c1cccc(O)c1)Nc1ccc(Cl)cc1` to `CC(NC(=O)Nc1ccc(-c2csnn2)cc1)C(=O)NC(C)(C)C` (configuration not stated), the cytotoxicity at 70.5 h falls from -0.328% to -9.46%.

Going from `CCCN(Cc1ccccc1C)C(CC)CO` (configuration not stated) to `Cc1ccc(C2CSCCN2C(=O)c2ccoc2C)o1` (configuration not stated), the cytotoxicity at 70.5 h falls from -7.79% to -8.94%.

First: O=C(Nc1ccc(F)cc1)NC1(CCO)CCOCC1
Second: c1csc(CNCC2COCc3c(-c4ccsc4)nnn3C2)n1 (configuration not stated)
The cytotoxicity at 70.5 h of the first is lower: -7.29% for the first, -7.15% for the second.

For `CN1CC(C(=O)NC(C)(C)CNC(=O)OC(C)(C)C)CC1=O` (configuration not stated), the cytotoxicity at 70.5 h was 9.2%.
